# Measurements as given in ChEMBL document CHEMBL5150041, “Discovery of novel N-(1-benzyl-1H-imidazol-2-yl)amide derivatives as melanocortin 1 receptor agonists” (Bioorg Med Chem Lett, 2022).
# What was measured:
# [1] = molecular target: T1, Melanocyte-stimulating hormone receptor (Homo sapiens, UniProt Q01726); test: Agonist activity at human MC1R assessed as increase in alpha-MSH induced cAMP level; type: functional
# Target sequence in this assay (Q01726 whole entry): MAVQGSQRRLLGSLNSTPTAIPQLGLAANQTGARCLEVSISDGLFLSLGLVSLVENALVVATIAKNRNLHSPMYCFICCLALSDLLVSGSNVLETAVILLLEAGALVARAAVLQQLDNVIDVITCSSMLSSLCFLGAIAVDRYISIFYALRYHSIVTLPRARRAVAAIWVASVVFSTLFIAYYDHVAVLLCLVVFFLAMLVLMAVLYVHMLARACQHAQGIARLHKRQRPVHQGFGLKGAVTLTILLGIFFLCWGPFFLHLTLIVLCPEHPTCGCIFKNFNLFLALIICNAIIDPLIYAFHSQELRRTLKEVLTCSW
# [2] = molecular target: T1, Melanocyte-stimulating hormone receptor; test: Intrinsic agonist activity at human MC1R assessed as increase in alpha-MSH induced cAMP level by measuring maximum response relative to control; type: functional; conditions: filed as agonist
# Target sequence in this assay (Q01726 whole entry, looked up): as the sequence (Q01726 whole entry) above
# [3] = molecular target: T1, Melanocyte-stimulating hormone receptor; test: Agonist activity at human MC1R assessed as increase in alpha-MSH induced cAMP level at 10 uM relative to control; type: functional
# Target sequence in this assay (Q01726 whole entry, looked up): as the sequence (Q01726 whole entry) above
# [4] = Metabolic stability in human assessed as intrinsic clearance measured per mg protein; type: ADME
SMILES,EC50 [1] [nM],Intrinsic activity [2] [%],Activity [3] [%],Activity ([3]; filed as agonist) [%],CL [4] [µL/min]
CC(C)(C)N1C[C@@H](C(=O)Nc2nc3ccccc3n2-c2ccccc2)[C@H](c2ccc(F)cc2F)C1,> 10000,,7,,
CC(C)(C)N1C[C@@H](C(=O)Nc2nc3ccccc3n2CCc2ccccc2)[C@H](c2ccc(F)cc2F)C1,> 10000,,7.5,,
Cn1c(NC(=O)[C@@H]2CN(C(C)(C)C)C[C@H]2c2ccc(F)cc2F)nc2ccccc21,> 10000,,2.5,,
CC(C)(C)N1C[C@@H](C(=O)Nc2nc3ccccc3n2Cc2ccccc2)[C@H](c2ccc(F)cc2F)C1,,,,53,
CC(C)(C)N1C[C@@H](C(=O)Nc2ncnn2Cc2ccccc2)[C@H](c2ccc(F)cc2F)C1,> 10000,,3.7,,
CC(C)(C)N1C[C@@H](C(=O)Nc2ccccc2Cc2ccccc2)[C@H](c2ccc(F)cc2F)C1,> 10000,,2.8,,
CC(C)(C)N1C[C@@H](C(=O)Nc2nccn2Cc2ccc(Cl)cc2)[C@H](c2ccc(F)cc2F)C1,> 10000,,18,,
CC(C)(C)N1C[C@@H](C(=O)Nc2nccn2Cc2ccccc2)[C@H](c2ccc(F)cc2F)C1,4660,54,,,
CC(C)(C)N1C[C@@H](C(=O)Nc2nccn2Cc2ccccc2-c2ccccc2)[C@H](c2ccc(F)cc2F)C1,527,79,,,860

# Results, then the compound that gave them:
EC50 [1] [nM],Intrinsic activity [2] [%],Activity [3] [%],Activity ([3]; filed as agonist) [%],CL [4] [µL/min],SMILES
1270,65,,,,CC(C)(C)N1C[C@@H](C(=O)Nc2nccn2Cc2ccccc2Cl)[C@H](c2ccc(F)cc2F)C1
1980,,,64,39,CC(C)(C)N1C[C@@H](C(=O)Nc2nccn2Cc2ccccc2N2CCC(CC(=O)O)CC2)[C@H](c2ccc(F)cc2F)C1
219,86,,,660,CC(C)(C)N1C[C@@H](C(=O)Nc2nccn2Cc2ccccc2N2CCOCC2)[C@H](c2ccc(F)cc2F)C1.Cl
386,80,,,450,CC(C)(C)N1C[C@@H](C(=O)Nc2nccn2Cc2ccccc2N2CCC(C(N)=O)CC2)[C@H](c2ccc(F)cc2F)C1.Cl
1270,50,,,,CC(C)(C)N1C[C@@H](C(=O)Nc2nccn2Cc2cccc(Cl)c2)[C@H](c2ccc(F)cc2F)C1
77,158,,,25,CC(C)(C)N1C[C@@H](C(=O)Nc2nccn2Cc2ccc(C(F)(F)F)cc2N2CCC(C(=O)O)CC2)[C@H](c2ccc(F)cc2F)C1
460,104,,,< 10,CC(C)(C)N1C[C@@H](C(=O)Nc2nccn2Cc2ccccc2N2CCC(C(=O)O)CC2)[C@H](c2ccc(F)cc2F)C1
318,101,,,28,Cc1ccc(Cn2ccnc2NC(=O)[C@@H]2CN(C(C)(C)C)C[C@H]2c2ccc(F)cc2F)c(N2CCC(C(=O)O)CC2)c1
339,77,,,610,CC(C)(C)N1C[C@@H](C(=O)Nc2nccn2Cc2ccccc2N2CCCCC2)[C@H](c2ccc(F)cc2F)C1.Cl
